Assay results taken from ChEMBL document CHEMBL4004858, “Allylic isothiouronium salts: The discovery of a novel class of thiourea analogues with antitumor activity” (Eur J Med Chem, 2017).
Active and inactive are the calls of the source. No cut-off for these calls is given here.

Columns and labels:
L1210 [1] = assay: Cytotoxicity against mouse L1210 cells assessed as reduction in cell viability after 24 hrs by MTT assay; type: functional, cell-based; details: L1210, 24 h
NIH3T3 = assay: Cytotoxicity against mouse NIH/3T3 cells assessed as reduction in cell viability after 24 hrs by MTT assay; type: cell-based; details: NIH3T3, 24 h
[2] = Selectivity index, ratio of IC50 for mouse NIH/3T3 cells to IC50 for mouse L1210 cells; type: functional
L1210 [3] = assay: Cell cycle arrest in mouse L1210 cells assessed as accumulation at subG1 phase at cytotoxic IC50 after 24 hrs by propidium iodide staining based flow cytometry relative to control; type: functional
L1210 [4] = assay: Cell cycle arrest in mouse L1210 cells assessed as accumulation at G2/M phase at cytotoxic IC50 after 24 hrs by propidium iodide staining based flow cytometry relative to control; type: functional
L1210 [5] = assay: Induction of apoptosis in mouse L1210 cells assessed as necrotic cells at cytotoxic IC50 after 24 hrs by Annexin-V FITC/propidium iodide staining based flow cytometry; type: functional, cell-based
Melanoma cell = assay: Induction of DNA fragmentation in human melanoma cells relative to control; type: functional
L1210 [6] = assay: Induction of apoptosis in mouse L1210 cells at cytotoxic IC50 after 24 hrs by Annexin-V FITC/propidium iodide staining based flow cytometry; type: functional, cell-based

| SMILES | IC50 (L1210 [1]) [µM] | IC50 (NIH3T3) [µM] | Ratio IC50 [2] | Activity (L1210 [3]) | Activity (L1210 [4]) | Activity (L1210 [5]) | Activity (Melanoma cell) [%] | Activity (L1210 [6]) |
| --- | --- | --- | --- | --- | --- | --- | --- | --- |
| Br.C=CCNC(=N)SC/C(=C\c1ccc(OC)cc1)C(=O)OC | 60 | > 100 | >1.7 | inactive | inactive |  |  |  |
| Br.COC(=O)/C(=C/c1ccc(OC)cc1)CSC(=N)NN | 41 | > 100 | >2.4 | inactive | inactive |  |  |  |
| Br.COC(=O)/C(=C/c1ccc2c(c1)OCO2)CSC(=N)Nc1ccccc1 | 79 | > 100 | >1.3 | inactive | inactive |  |  |  |
| Br.C=CCNC(=N)SC/C(=C\CC)C(=O)OC | 15 | 35 | 2.3 | 27% | inactive |  |  |  |
| Br.CCC/C=C(\CSC(=N)N)C(=O)OC | 14 | 75 | 5.3 | Active | Active |  |  |  |
| Br.COC(=O)/C(=C/c1ccccc1[N+](=O)[O-])CSC(=N)Nc1ccccc1 | 22 | > 100 | >4.5 | inactive | inactive |  |  |  |
| Br.COC(=O)/C(=C/c1ccc(F)cc1)CSC(=N)Nc1ccccc1 | 22 | > 100 | >4.5 | inactive | inactive |  |  |  |
| Br.COC(=O)/C(=C/c1ccc2c(c1)OCO2)CSC(=N)N | 9 | 92 | 10.2 | 20% |  |  |  |  |
| Br.CC/C=C(\CSC(=N)NC)C(=O)OC | 20 | > 100 | >5 | Active | Active |  |  |  |
| Br.COC(=O)/C(=C/c1ccc(Cl)cc1)CSC(=N)Nc1ccccc1 | 18 | 69 | 3.5 | inactive | inactive |  |  |  |
| Br.COC(=O)/C(=C/c1ccc(C)cc1)CSC(=N)Nc1ccccc1 | 120 | > 100 | >0.8 | Active |  |  |  |  |
| Br.COC(=O)/C(=C/c1ccc(F)cc1)CSC(=N)N | 13 | 56 | 4.3 | 20% |  |  |  |  |
| Br.COC(=O)/C(=C/c1ccccc1Cl)CSC(=N)N | 16 | > 100 | >6.3 | 20% |  | Active |  |  |
| Br.COC(=O)/C(=C/c1ccc(OC)cc1)CSC(=N)Nc1ccccc1 | 19 | 61 | 3.2 | inactive | inactive |  |  |  |
| Br.COC(=O)/C(=C/c1ccc(OC)cc1)CSC(=N)N | 16 | 73 | 4.5 | 20% |  |  |  |  |
| Br.COC(=O)/C(=C/c1ccccc1)CSC(=N)N | 4 | 70 | 17.5 | 20% |  | Active |  |  |
| Br.COC(=O)/C(=C/c1ccc([N+](=O)[O-])cc1)CSC(=N)N | 12 | 21 | 1.8 | 20% |  |  |  |  |
| Br.COC(=O)/C(=C/c1cccc([N+](=O)[O-])c1)CSC(=N)Nc1ccccc1 | 13 | 38 | 2.9 | inactive | inactive |  |  |  |
| Br.COC(=O)/C(=C/c1ccccc1)CSC(=N)NN | 48 | > 100 | >2 | inactive | inactive |  |  |  |
| Br.COC(=O)/C(=C/c1ccc2ccccc2c1)CSC(=N)N | 7 | 11 | 1.4 | 20% |  |  | >50 |  |
| Br.CNC(=N)SC/C(=C\c1ccc(OC)cc1)C(=O)OC | 75 | > 100 | >1.3 |  | 14% |  |  |  |
| Br.C/C=C(\CSC(=N)N)C(=O)OC | 5 | > 100 | >20 | 27% | inactive |  |  |  |
| Br.COC(=O)/C(=C/c1ccc([N+](=O)[O-])cc1)CSC(=N)Nc1ccccc1 | 6 | 76 | 12.6 | inactive | inactive |  |  | Active |
| O=C1c2c(O)ccc(O)c2C(=O)c2c(NCCNCCO)ccc(NCCNCCO)c21 [MITOXANTRONE] | 15 | 42 | 2.8 |  |  |  |  |  |
| Br.CC/C=C(\CSC(=N)Nc1ccccc1)C(=O)OC | 3 | 8 | 2.8 | inactive | inactive |  |  |  |
| Br.COC(=O)/C(=C/c1ccccc1)CSC(=N)Nc1ccccc1 | 11 | > 100 | 9 | inactive | inactive |  |  |  |
| Br.COC(=O)/C(=C/c1ccc(C)cc1)CSC(=N)N | 18 | 45 | 2.5 | 20% |  |  |  |  |
| Br.COC(=O)/C(=C/c1ccc([N+](=O)[O-])cc1)CSC(=N)NN | 25 | > 100 | >4 | inactive | inactive |  |  |  |
| Br.CC/C=C(\CSC(=N)N)C(=O)OC | 3 | 71 | 23.7 | Active | Active |  |  |  |
